Assay results as given in patent US10201531B2, “Indazolyl-oxo-isothiazole compounds” (MOCHIDA PHARMACEUTICAL CO., LTD., priority 2015, dated 2019).

Test system: Nrf2
Experiment: Evaluation of Nrf2 activation ability (Nrf2d-LacZ / Keap1 HEK293 reporter, Beta-Glo luminescence)
Format: cell-based, human
Method: HEK293 cells constantly expressing Nrf2d-LacZ (human Nrf2 degron region fused to LacZ; Hirotsu et al, Genes to Cell, Vol. 16, pp. 406-415 (2011)) and human Keap1 were seeded 7,000 cells/27 μl/well on 384-well plates (Corning 384 Well Flat Clear Bottom White Polystyrene TC-Treated Microplates, Cat. #3707), and cultured overnight at 5% CO2, 37° C. in DMEM medium containing 10% FBS, 100 U/mL penicillin and 100 μg/mL streptomycin. 3 μL/well of a 0.1% DMSO solution of the compound of the invention was added to the cells, which were then cultured for 3 hours at 5% CO2, 37° C. Beta-Glo® reagent (Promega, Beta-Glo Assay System, Cat. #E4740) was added 15 μL/well and incubated for 1 hour at room temperature, and luminescence intensity was measured with a luminometer. Using CDDO-Im as a standard, Nrf2 activation ability was calculated given 100% as the luminescence under stimulus with 100 nM CDDO-Im.

[1] = rated A/B/C, Pharmacological Test Example 1
[2] = Pharmacological Test Example 1, rated A/B/C

Row | Structure (SMILES) | EC50 [1] | EC50 [2]
1 | COc1cc(-c2cccnc2)cc2c1cnn2-c1cc(O)n[s+]1[O-] (stereo not shown) [Example 199] | 1000 to 5000 nM | –
2 | CC(C)(C)OC(=O)N1CCc2c(cnn2-c2cc(O)n[s+]2[O-])C1 (stereo not shown) [Example 247] | 1000 to 5000 nM | –
3 | COc1cc(-c2ccc(N3CCCC3)nc2)cc2c1cnn2-c1cc(O)n[s+]1[O-] (stereo not shown) [Example 193] | < 1000 nM | –
4 | [O-][s+]1nc(O)cc1-n1cc(C#Cc2ccc(Cl)nc2)cn1 (stereo not shown) [Example 436] | – | < 1000 nM
5 | Cc1nn(-c2cc(O)n[s+]2[O-])c(C)c1C1=CCC(C)(C)CC1 (stereo not shown) [Example 316] | – | 1000 to 5000 nM
6 | COc1ccccc1-c1cnn(-c2cc(O)n[s+]2[O-])c1 (stereo not shown) [Example 387] | – | < 1000 nM
7 | COc1cc(-c2ccnc(N3CCCCC3)c2)c2cnn(-c3cc(O)n[s+]3[O-])c2c1 (stereo not shown) [Example 176] | 1000 to 5000 nM | –
8 | [O-][s+]1nc(O)cc1-n1ncc2ccc(-c3ccc(C4CC4)nc3)cc21 (stereo not shown) [Example 111] | 1000 to 5000 nM | –
9 | [O-][s+]1nc(O)cc1-n1ncc2cc(C3=CCOCC3)ncc21 (stereo not shown) [Example 236] | 1000 to 5000 nM | –
10 | COc1cc(C2CC2)c2cnn(-c3cc(O)n[s+]3[O-])c2c1 (stereo not shown) [Example 183] | 1000 to 5000 nM | –
11 | CC(C)(C)OC(=O)N1Cc2cnn(-c3cc(O)n[s+]3[O-])c2C1 (stereo not shown) [Example 245] | 1000 to 5000 nM | –
12 | COc1cc(-c2cncc(C)c2)c2cnn(-c3cc(O)n[s+]3[O-])c2c1 (stereo not shown) [Example 167] | 1000 to 5000 nM | –
13 | [O-][s+]1nc(O)cc1-n1ncc2cc(-c3cnc(N4CCOCC4)cn3)ccc21 (stereo not shown) [Example 142] | 1000 to 5000 nM | –
14 | [O-][s+]1nc(O)cc1-n1ncc2cc(-c3cnc4c(c3)OCCN4C3CC3)ccc21 (stereo not shown) [Example 149] | < 1000 nM | –
15 | COc1cc(-c2cnn(-c3cc(O)n[s+]3[O-])c2)cc(OC)c1OC (stereo not shown) [Example 390] | – | 1000 to 5000 nM
16 | [O-][s+]1nc(O)cc1-n1cc(C2=Cc3ccccc3C2)cn1 (stereo not shown) [Example 345] | – | < 1000 nM
17 | COc1cc(Br)c2cnn(-c3cc(O)n[s+]3[O-])c2c1 (stereo not shown) [Example 9] | 1000 to 5000 nM | –
18 | [O-][s+]1nc(O)cc1-n1cc(-c2ccccc2-c2ccccc2)cn1 (stereo not shown) [Example 328] | – | 1000 to 5000 nM
19 | Cn1c(=O)oc2cc(-c3cnn(-c4cc(O)n[s+]4[O-])c3)ccc21 (stereo not shown) [Example 424] | – | 5000 to 10000 nM
20 | [O-][s+]1nc(O)cc1-n1cc(-n2cccn2)cn1 (stereo not shown) [Example 422] | – | 5000 to 10000 nM
21 | [O-][s+]1nc(O)cc1-n1ncc2cccc(Cl)c21 (stereo not shown) [Example 37] | 1000 to 5000 nM | –
22 | [O-][s+]1nc(O)cc1-n1cc(-c2ccc(Oc3ccccc3)cc2)cn1 (stereo not shown) [Example 333] | – | < 1000 nM
23 | CC(C)(C)OC(=O)N1CC=C(c2ccc3c(cnn3-c3cc(O)n[s+]3[O-])c2)CC1 (stereo not shown) [Example 44] | < 1000 nM | –
24 | COc1nn(-c2cc(O)n[s+]2[O-])c2ccc(-c3cnc4c(c3)OCCN4C)cc12 (stereo not shown) [Example 223] | 1000 to 5000 nM | –

Row | Structure (SMILES) | EC50 [1] | EC50 [2]
25 | [O-][s+]1nc(O)cc1-n1ncc2nc(-c3ccc(N4CCCCC4)nc3)ccc21 (stereo not shown) [Example 241] | 1000 to 5000 nM | –
26 | COc1ncccc1-c1cnn(-c2cc(O)n[s+]2[O-])c1 (stereo not shown) [Example 393] | – | < 1000 nM
27 | [O-][s+]1nc(O)cc1-n1cc(-c2cnc3ccccc3n2)cn1 (stereo not shown) [Example 408] | – | < 1000 nM
28 | [O-][s+]1nc(O)cc1-n1ncc2cc(-c3cccnc3)ncc21 (stereo not shown) [Example 235] | 1000 to 5000 nM | –
29 | [O-][s+]1nc(O)cc1-n1cc(-c2ccc(Oc3ccccc3)cc2)cn1 (stereo not shown) [Example 377] | – | < 1000 nM
30 | CN1CCOc2cc(-c3cnn(-c4cc(O)n[s+]4[O-])c3)cnc21 (single isomer, unassigned) [Example 450] | – | < 1000 nM
31 | [O-][s+]1nc(O)cc1-n1ncc2cc(-c3cnc4c(c3)OCCCN4)ccc21 (stereo not shown) [Example 190] | < 1000 nM | –
32 | [O-][s+]1nc(O)cc1-n1cc(-c2ccc(Cl)nc2)cn1 (stereo not shown) [Example 439] | – | < 1000 nM
33 | [O-][s+]1nc(O)cc1-n1cc(C2=CCC(F)(F)CC2)cn1 (stereo not shown) [Example 301] | < 1000 nM | –
34 | COc1cc(-c2cc(OC)c3cnn(-c4cc(O)n[s+]4[O-])c3c2)ccn1 (stereo not shown) [Example 201] | < 1000 nM | –
35 | [O-][s+]1nc(O)cc1-n1cc(C2=Cc3ccccc3C2)cn1 (stereo not shown) [Example 384] | – | < 1000 nM
36 | [O-][s+]1nc(O)cc1-n1cc(-c2ncccn2)cn1 (stereo not shown) [Example 423] | – | 1000 to 5000 nM
37 | [O-][s+]1nc(O)cc1-n1ncc2cc(-c3cnc(N4CCCCC4)cn3)ccc21 (stereo not shown) [Example 140] | < 1000 nM | –
38 | COc1nc(-c2ccc(N3CCCC3)nc2)ccc1-c1cnn(-c2cc(O)n[s+]2[O-])c1 (single isomer, unassigned) [Example 453] | – | < 1000 nM
39 | [O-][s+]1nc(O)cc1-n1ncc2nc(Cl)ccc21 (stereo not shown) [Example 227] | 1000 to 5000 nM | –
40 | O=C(Cc1ccc(-c2cnn(-c3cc(O)n[s+]3[O-])c2)cc1)N1CCc2ccccc21 (stereo not shown) [Example 373] | – | 5000 to 10000 nM
41 | COc1ccc(-c2cnn(-c3cc(O)n[s+]3[O-])c2)cc1 (stereo not shown) [Example 389] | – | < 1000 nM
42 | [O-][s+]1nc(O)cc1-n1ncc2c(OCc3ccccc3)cccc21 (stereo not shown) [Example 30] | 5000 to 10000 nM | –
43 | [O-][s+]1nc(O)cc1-n1cc(-c2ccc3ccccc3c2)cn1 (stereo not shown) [Example 340] | – | < 1000 nM
44 | [O-][s+]1nc(O)cc1-n1ncc2cc(C3=CCC(F)(F)CC3)ccc21 (stereo not shown) [Example 39] | < 1000 nM | –
45 | COc1cc(-c2cnc3c(c2)OCCN3C)cc2c1cnn2-c1cc(O)n[s+]1[O-] (stereo not shown) [Example 192] | < 1000 nM | –
46 | Cc1nc2cc(-c3cnn(-c4cc(O)n[s+]4[O-])c3)ccc2s1 (stereo not shown) [Example 354] | – | < 1000 nM
47 | [O-][s+]1nc(O)cc1-n1ncc2ccc(-c3ccc(N4CCCC4)nc3)cc21 (stereo not shown) [Example 106] | 1000 to 5000 nM | –
48 | COc1ccc2cnn(-c3cc(O)n[s+]3[O-])c2c1 (stereo not shown) [Example 55] | < 1000 nM | –

Further lines, results first:

Row | EC50 [1] | EC50 [2] | Structure (SMILES)
49 | < 1000 nM | – | CN(C)c1ccc(-c2ccc3c(cnn3-c3cc(O)n[s+]3[O-])c2)cn1 (stereo not shown) [Example 136]
50 | < 1000 nM | – | Cc1cccc(-c2ccc3c(cnn3-c3cc(O)n[s+]3[O-])c2)n1 (stereo not shown) [Example 117]
51 | 1000 to 5000 nM | – | Cn1cc2c(-c3ccc4c(cnn4-c4cc(O)n[s+]4[O-])c3)cccc2n1 (stereo not shown) [Example 76]
52 | < 1000 nM | – | [O-][s+]1nc(O)cc1-n1ncc2cc(-c3ccccc3F)ccc21 (stereo not shown) [Example 83]
53 | 5000 to 10000 nM | – | [O-][s+]1nc(O)cc1-n1ncc2cc(-c3cn[nH]c3)ccc21 (stereo not shown) [Example 51]
54 | < 1000 nM | – | CN1CCCCOc2cc(-c3ccc4c(cnn4-c4cc(O)n[s+]4[O-])c3)cnc21 (stereo not shown) [Example 205]
55 | 5000 to 10000 nM | – | [O-][s+]1nc(O)cc1-n1ncc2c(-c3cncnc3)cccc21 (stereo not shown) [Example 81]
56 | 5000 to 10000 nM | – | CN1C(=O)CCc2cc(-c3ccc4c(cnn4-c4cc(O)n[s+]4[O-])c3)cnc21 (stereo not shown) [Example 164]
57 | 1000 to 5000 nM | – | O=C(c1ccc(-c2ccc3c(cnn3-c3cc(O)n[s+]3[O-])c2)cc1)N1CCCC1 (stereo not shown) [Example 75]
58 | < 1000 nM | – | CN1CCOc2nc(-c3ccc4c(cnn4-c4cc(O)n[s+]4[O-])c3)ncc21 (stereo not shown) [Example 215]
59 | < 1000 nM | – | COc1ccc(-c2ccc3c(cnn3-c3cc(O)n[s+]3[O-])c2)cn1 (stereo not shown) [Example 86]
60 | 1000 to 5000 nM | – | N#Cc1ccc(-c2ccc3c(cnn3-c3cc(O)n[s+]3[O-])c2)nc1 (stereo not shown) [Example 108]
61 | 1000 to 5000 nM | – | O=c1[nH]ccc2cc(-c3ccc4c(cnn4-c4cc(O)n[s+]4[O-])c3)ccc12 (stereo not shown) [Example 64]
62 | < 1000 nM | – | COCCN1CCOc2cc(-c3ccc4c(cnn4-c4cc(O)n[s+]4[O-])c3)cnc21 (stereo not shown) [Example 172]
63 | < 1000 nM | – | COc1cc(-c2ccc3c(cnn3-c3cc(O)n[s+]3[O-])c2)cnc1N(C)C (stereo not shown) [Example 173]
64 | 5000 to 10000 nM | – | Cc1ccc2c(cnn2-c2cc(O)n[s+]2[O-])c1 (stereo not shown) [Example 25]
65 | 1000 to 5000 nM | – | COc1cc(-c2ccc3cnn(-c4cc(O)n[s+]4[O-])c3c2)ccn1 (stereo not shown) [Example 110]
66 | 5000 to 10000 nM | – | Cc1cncc(-c2ccc3cnn(-c4cc(O)n[s+]4[O-])c3c2)c1 (stereo not shown) [Example 113]
67 | < 1000 nM | – | CN1CCOc2cc(-c3ccc4c(cnn4-c4cc(O)n[s+]4[O-])c3)c(C(F)F)nc21 (stereo not shown) [Example 204]
68 | < 1000 nM | – | [O-][s+]1nc(O)cc1-n1ncc2cc(-c3ccc(C(F)(F)F)cn3)ccc21 (stereo not shown) [Example 132]
69 | < 1000 nM | – | [O-][s+]1nc(O)cc1-n1ncc2cc(-c3ccc(F)cc3)ccc21 (stereo not shown) [Example 85]
70 | 1000 to 5000 nM | – | Cn1cc(-c2cccc3c2cnn3-c2cc(O)n[s+]2[O-])cn1 (stereo not shown) [Example 101]
71 | 1000 to 5000 nM | – | [O-][s+]1nc(O)cc1-n1ncc2cc(-c3cncnc3)ccc21 (stereo not shown) [Example 41]
72 | < 1000 nM | – | [O-][s+]1nc(O)cc1-n1ncc2cc(-c3ccnc(N4CCOCC4)c3)ccc21 (stereo not shown) [Example 59]
73 | 1000 to 5000 nM | – | COc1ccncc1-c1ccc2c(cnn2-c2cc(O)n[s+]2[O-])c1 (stereo not shown) [Example 47]
